Among the data in US20240270740A1, “INHIBITORS OF CYCLIC GMP-AMP SYNTHASE AND USES THEREOF” (Ventus Therapeutics U.S., Inc., priority 2022, published 2024) are IC50 values, retold here.

Where only a bound is given, the exact number is not on record here.

Test [1] deals with T1, hcGAS (Homo sapiens, UniProt Q8N884). As to the kind of experiment: hcGAS Kinase-Glo assay (ATP depletion). The following applies: 40 nM hcGAS, 100 μM ATP, 100 μM GTP, 25 nM dsDNA, 3 h incubation. The test is classed as biochemical. As to the method: cGAS catalyzes the cyclization of ATP and GTP to produce cGAMP, which is the activating ligand of STING. Human cGAS (hcGAS) inhibition can thus be quantified by measuring how much cGAMP is formed either indirectly, by monitoring ATP-depletion as in the hcGAS Kinase-Glo assay (as described below), or directly, such as using the hcGAS LCMS assay (as described below).
T1 sequence (Q8N884 whole entry): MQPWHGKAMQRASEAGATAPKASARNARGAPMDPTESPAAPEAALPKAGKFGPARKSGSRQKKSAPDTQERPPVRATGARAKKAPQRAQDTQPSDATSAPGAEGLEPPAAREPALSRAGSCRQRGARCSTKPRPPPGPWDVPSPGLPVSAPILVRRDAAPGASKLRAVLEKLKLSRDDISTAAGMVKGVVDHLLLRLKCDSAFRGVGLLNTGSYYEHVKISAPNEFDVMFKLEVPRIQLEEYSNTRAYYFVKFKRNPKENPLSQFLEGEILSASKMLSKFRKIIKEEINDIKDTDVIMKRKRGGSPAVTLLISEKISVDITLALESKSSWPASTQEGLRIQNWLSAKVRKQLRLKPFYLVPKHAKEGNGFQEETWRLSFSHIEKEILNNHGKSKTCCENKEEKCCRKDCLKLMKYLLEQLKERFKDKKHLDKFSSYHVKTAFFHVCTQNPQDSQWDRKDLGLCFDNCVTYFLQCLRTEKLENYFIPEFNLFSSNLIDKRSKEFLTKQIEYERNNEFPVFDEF
(i) hcGAS Kinase-Glo Assay
Compounds were tested for their human-cGAS […] inhibition activity using the methodology reported in Lama et al., “Development of human cGAS-specific small molecule inhibitors for repression of dsDNA-triggered interferon expression”, Nature Communications 10, Article number: 2261 (2019), with slight changes to some conditions as shown in Table B.
The results of the assay, expressed in IC50 values, are reported in Table D with the following designations: A represents an IC50 value<0.01 μM; B represents an IC50 value≥0.01 μM and <0.03 μM; C represents an IC50 value≥0.03 μM and <0.1 μM; D represents an IC50 value≥0.1.
In general terms: Kinase-Glo reads ATP consumption through a luciferase reaction.

Test [2] concerns the target T1, hcGAS. As to the kind of experiment: hcGAS LCMS assay (direct measurement of cGAMP production). The test is classed as biochemical. The note with it: 0.5 nM hcGAS, 100 μM ATP, 100 μM GTP, 25 nM dsDNA, 4 h incubation. The essentials: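 Direct LC/MS readout of cGAMP formed: 4-h enzyme–substrate incubation with compound, stopped by acetonitrile/water quench carrying isotope-labelled cGAMP (0.15 mM) as standard. Potency reported as IC50 ranges.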

The term IC50 denotes the concentration that inhibits the measured activity by half. For `COc1c(N[C@H]2CC[C@@H](OC)C2)cc(C(=O)Nc2nnc(-n3nccc3C)s2)oc1=O` (racemic) [Rac-108, 3-methoxy-4-(((cis)-3-methoxycyclopentyl)amino)-N-(5-(5-methyl-1H-pyrazol-1-yl)-1,3,4-thiadiazol-2-yl)-2-oxo-2H-pyran-6-carboxamide], the IC50 was 10 to 30 nM in test [1] and 5 to 20 nM in test [2].

On to `COc1c(N[C@H]2CCS(=O)(=O)C2)cc(C(=O)Nc2nnc(-n3nccc3C)s2)oc1=O` [Compound 62, (S)-4-((1,1-dioxidotetrahydrothiophen-3-yl)amino)-3-methoxy-N-(5-(5-methyl-1H-pyrazol-1-yl)-1,3,4-thiadiazol-2-yl)-2-oxo-2H-pyran-6-carboxamide], for which the values for the IC50 in test [1] and in test [2] were 10 to 30 nM and 5 to 20 nM, respectively.

`COc1c(N2C[C@H](OC)[C@@H](O)C2)cc(C(=O)Nc2nnc(-n3nccc3C)s2)oc1=O` (racemic) [Rac-91, 4-((3S,4S)-3-hydroxy-4-methoxypyrrolidin-1-yl)-3-methoxy-N-(5-(5-methyl-1H-pyrazol-1-yl)-1,3,4-thiadiazol-2-yl)-2-oxo-2H-pyran-6-carboxamide]: the values for the 50% inhibitory concentration (IC50) in test [1] and in test [2] were below 10 nM and 5 to 20 nM, respectively.

Consider `COc1c(NCc2ccccc2)cc(C(=O)Nc2nnc(-n3nccc3C)s2)oc1=O` [Compound 103, 4-(benzylamino)-3-methoxy-N-(5-(5-methyl-1H-pyrazol-1-yl)-1,3,4-thiadiazol-2-yl)-2-oxo-2H-pyran-6-carboxamide], for which the IC50 was 30 to 100 nM in test [1] and 5 to 20 nM in test [2].

For `COc1c(NC23CC(OC)(C2)C3)cc(C(=O)Nc2nnc(-n3nccc3C)s2)oc1=O` [Compound 111, 3-methoxy-4-((3-methoxybicyclo[1.1.1]pentan-1-yl)amino)-N-(5-(5-methyl-1H-pyrazol-1-yl)-1,3,4-thiadiazol-2-yl)-2-oxo-2H-pyran-6-carboxamide], the IC50 in test [1] is 10 to 30 nM; in test [2], 5 to 20 nM.

As for `COc1c(N2CC[C@@H](O)C2)cc(C(=O)Nc2nnc(-n3nccc3C)s2)oc1=O` [Compound 30, (R)-4-(3-hydroxypyrrolidin-1-yl)-3-methoxy-N-(5-(5-methyl-1H-pyrazol-1-yl)-1,3,4-thiadiazol-2-yl)-2-oxo-2H-pyran-6-carboxamide], the IC50 lay in the range of 10 to 30 nM in test [1] and 5 to 20 nM in test [2].

Take `COc1c(NC[C@@H](C)OC)cc(C(=O)Nc2nnc(-n3nccc3C)s2)oc1=O` [Compound 119, (R)-3-methoxy-4-((2-methoxypropyl)amino)-N-(5-(5-methyl-1H-pyrazol-1-yl)-1,3,4-thiadiazol-2-yl)-2-oxo-2H-pyran-6-carboxamide]: the half-maximal inhibitory concentration (IC50) fell in the range of 10 to 30 nM in test [1] and 5 to 20 nM in test [2].

`COc1c(NC[C@@H]2CCCO2)cc(C(=O)Nc2nnc(-n3nccc3C)s2)oc1=O` [Compound 66, (S)-3-methoxy-N-(5-(5-methyl-1H-pyrazol-1-yl)-1,3,4-thiadiazol-2-yl)-2-oxo-4-(((tetrahydrofuran-2-yl)methyl)amino)-2H-pyran-6-carboxamide]: the IC50 is 10 to 30 nM in test [1] and 5 to 20 nM in test [2].

For the molecule `COc1c(NCC(C)(C)O)cc(C(=O)Nc2nnc(-n3nccc3C)s2)oc1=O` [Compound 33, 4-(2-hydroxy-2-methylpropylamino)-5-methoxy-N-(5-(5-methyl-1H-pyrazol-1-yl)-1,3,4-thiadiazol-2-yl)-6-oxo-6H-pyran-2-carboxamide], the IC50 in test [1] lay within 10 to 30 nM; in test [2] it was 20 to 60 nM.

`COCCNc1cc(C(=O)Nc2nnc(-n3nccc3C)s2)oc(=O)c1OC` [Compound 75, 3-methoxy-4-((2-methoxyethyl)amino)-N-(5-(5-methyl-1H-pyrazol-1-yl)-1,3,4-thiadiazol-2-yl)-2-oxo-2H-pyran-6-carboxamide]: the half-inhibitory concentration (IC50) in test [1] is 30 to 100 nM; in test [2], 5 to 20 nM.
